# Test results: patent US8110573B2, “Pyrazole compounds that modulate the activity of CDK, GSK and aurora kinases” (Astex Therapeutics Limited, priority 2004, dated 2012)
# Where a name gives a salt, the structure may show the parent alone.
# Experiment: physchem
# Conditions: water, thermodynamic from solid
smiles,measurement,value
"O=C(Nc1c[nH]nc1-c1nc2cc(CN3CCOCC3)ccc2[nH]1)NC1CC1 [Hydrochloride, 1-cyclopropyl-3-[3-(5-morpholin-4-ylmethyl-1H-benzoimidazol-2-yl)-1H-pyrazol-4-yl]-urea]",solubility at 16 h,< 25 mg/mL
